PubChem BioAssay (NCI)
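Five compound concentrations were applied to cells in 96-well plates for 48 hours; endpoints were derived by simple linear interpolation of the resulting dose-response curve. The concentration for 50% growth inhibition is given as GI50. Definition used: TGI = concentration required for complete inhibition of growth.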

Columns and labels:
Test in all cases: inhibition of tumour cell growth, NCI panel, 48 h
RPMI-8226 leukemia = test system: RPMI-8226 leukemia
SK-OV-3 ovarian = test system: SK-OV-3 ovarian
OVCAR-4 ovarian = test system: OVCAR-4 ovarian
HT29 colon = test system: HT29 colon
K-562 leukemia = test system: K-562 leukemia
HL-60(TB) leukemia = test system: HL-60(TB) leukemia
NCI-H522 lung = test system: NCI-H522 lung
KM12 colon = test system: KM12 colon
NCI-H460 lung = test system: NCI-H460 lung
NCI-H226 lung = test system: NCI-H226 lung
SW-620 colon = test system: SW-620 colon
MALME-3M melanoma = test system: MALME-3M melanoma
SNB-75 CNS = test system: SNB-75 CNS
SN12C renal = test system: SN12C renal
COLO 205 colon = test system: COLO 205 colon
MDA-MB-231 breast = test system: MDA-MB-231 breast
HCT-116 colon = test system: HCT-116 colon
UACC-257 melanoma = test system: UACC-257 melanoma
HCT-15 colon = test system: HCT-15 colon
A549 NSCLC = test system: A549 NSCLC
HS 578T breast = test system: HS 578T breast
IGROV1 ovarian = test system: IGROV1 ovarian
T-47D breast = test system: T-47D breast
OVCAR-3 ovarian = test system: OVCAR-3 ovarian
SK-MEL-5 melanoma = test system: SK-MEL-5 melanoma
HOP-62 NSCLC = test system: HOP-62 NSCLC
UO-31 renal = test system: UO-31 renal
MOLT-4 leukemia = test system: MOLT-4 leukemia
PC-3 prostate = test system: PC-3 prostate

## Nc1c(C(=O)c2cccc(OC[C@@H](O)CO)c2)cnn1-c1ccc(F)cc1
RPMI-8226 leukemia
  TGI: > 25 µM
SK-OV-3 ovarian
  GI50: > 25 µM
  TGI: > 25 µM
OVCAR-4 ovarian
  GI50: > 20.9 µM
  TGI: > 25 µM
HT29 colon
  GI50: > 25 µM
  TGI: > 25 µM
K-562 leukemia
  GI50: > 25 µM
  TGI: > 25 µM
HL-60(TB) leukemia
  GI50: > 25 µM
  TGI: > 25 µM
NCI-H522 lung
  GI50: > 25 µM
  TGI: > 25 µM
KM12 colon
  GI50: > 25 µM
  TGI: > 25 µM
NCI-H460 lung
  GI50: > 25 µM
  TGI: > 25 µM
NCI-H226 lung
  GI50: > 25 µM
  TGI: > 25 µM
SW-620 colon
  GI50: > 25 µM
  TGI: > 25 µM
MALME-3M melanoma
  GI50: > 25 µM
  TGI: > 25 µM
SNB-75 CNS
  GI50: > 25 µM
  TGI: > 25 µM
SN12C renal
  GI50: > 25 µM
  TGI: > 25 µM
COLO 205 colon
  GI50: > 25 µM
  TGI: > 25 µM
MDA-MB-231 breast
  GI50: > 25 µM
  TGI: > 25 µM
HCT-116 colon
  GI50: > 25 µM
  TGI: > 25 µM
UACC-257 melanoma
  GI50: > 25 µM
  TGI: > 25 µM
HCT-15 colon
  GI50: > 25 µM
  TGI: > 25 µM
A549 NSCLC
  GI50: > 25 µM
  TGI: > 25 µM
HS 578T breast
  GI50: > 25 µM
  TGI: > 25 µM
IGROV1 ovarian
  GI50: > 25 µM
  TGI: > 25 µM
T-47D breast
  GI50: > 25 µM
  TGI: > 25 µM
OVCAR-3 ovarian
  GI50: > 25 µM
  TGI: > 25 µM
SK-MEL-5 melanoma
  GI50: > 25 µM
  TGI: > 25 µM
HOP-62 NSCLC
  GI50: > 25 µM
  TGI: > 25 µM
UO-31 renal
  GI50: > 25 µM
  TGI: > 25 µM
MOLT-4 leukemia
  GI50: > 25 µM
  TGI: > 25 µM
PC-3 prostate
  GI50: > 25 µM
  TGI: > 25 µM
